Conditions: in chloroform

**Q.** With `Brc1sc(Br)c(Br)c1Br` as the compound, how does the solubility (mole fraction) (278.15 K) read?
**A.** The solubility (mole fraction) was 0.0198.

**Q.** What about the solubility (mole fraction) (282.15 K) of the same compound?
**A.** Its solubility (mole fraction) is 0.0231.

**Q.** And the solubility (mole fraction) (286.15 K)?
**A.** The solubility (mole fraction) was 0.0265.

**Q.** What about the solubility (mole fraction) (290.15 K) of the same compound?
**A.** The solubility (mole fraction) was 0.0304.

**Q.** And the solubility (mole fraction) (294.15 K)?
**A.** Its solubility (mole fraction) is 0.0349.

**Q.** What about the solubility (mole fraction) (298.15 K) of the same compound?
**A.** Its solubility (mole fraction) is 0.0401.

**Q.** What about the solubility (mole fraction) (302.15 K) of the same compound?
**A.** The solubility (mole fraction) was 0.0458.

**Q.** And the solubility (mole fraction) (306.15 K)?
**A.** Its solubility (mole fraction) is 0.0517.

**Q.** What about the solubility (mole fraction) (310.15 K) of the same compound?
**A.** The solubility (mole fraction) was 0.0588.

**Q.** What about the solubility (mole fraction) (314.15 K) of the same compound?
**A.** The solubility (mole fraction) was 0.066.

**Q.** And the solubility (mole fraction) (318.15 K)?
**A.** The solubility (mole fraction) was 0.0745.

**Q.** What about the solubility (mole fraction) (322.15 K) of the same compound?
**A.** Its solubility (mole fraction) is 0.0828.
